Earlier results as cited in PMC6304311 (Influenza and Other Respiratory Viruses, 2018).
“And” between values parts separate entries of the source, which are not always exact repeats. Identical values can stand only once. “Also recorded” adds a separate entry of the source.

Columns and labels:
Conditions in all cases: cited from earlier work
influenza A(H3N2) = test system: influenza A(H3N2)
[1] = target: NA from influenza B virus isolates (Influenza B virus, UniProt A0A1S5RAG6)
[2] = test system: seasonal influenza A(H1N1) viruses
[3] = test system: Influenza A(H1N1)pdm09 H275Y‐resistant phenotype viruses
[4] = test system: NA from influenza A(H1N1)pdm09 virus isolates
[5] = target: NA from influenza A(H3N2) virus isolates (Influenza A virus, UniProt V5P6L4)
[6] = target: NA from influenza A(H1N1) virus isolates (Influenza A virus, UniProt C0LLZ0)
[7] = read-out: IC50, resistant phenotype reference virus

SMILES | effect of I215V NA substitution on susceptibility (influenza A(H3N2)) | susceptibility phenotype of reference virus [1] | frequency of resistance globally [2] [%] | phenotype of isolates [2] | patients with H275Y‐resistant phenotype viruses after treatment [3] [%] | susceptibility phenotype of reference virus [4] | IC50 [4, 7] [nM] | susceptibility phenotype of reference virus [5] | IC50 [5, 7] [nM] | frequency of resistance to inhibition (influenza A(H3N2)) | susceptibility phenotype of reference virus [6] | IC50 [6, 7] [nM]
CC(=O)N[C@H]1[C@H]([C@H](O)[C@H](O)CO)OC(C(=O)O)=C[C@@H]1N=C(N)N [zanamivir] | borderline reduction in susceptibility |  |  |  |  |  |  |  |  |  |  | 
CCOC(=O)C1=C[C@@H](OC(CC)CC)[C@H](NC(C)=O)[C@@H](N)C1 [oseltamivir] | borderline reduction in susceptibility | susceptible; also recorded: resistant | 90 | phenotypically resistant | 2 | susceptible; also recorded: resistant | 70.6 | susceptible; also recorded: resistant | 5.24 | 0.2% and 1.1% | susceptible; also recorded: resistant | 93.2
